Measurements: ChEMBL document CHEMBL3997812, “The induction of oxidative stress in cervix carcinoma cells by levoglucosenone derived 4-S-salicyl derivative and (1-4)-S-thio-disaccharides. Part 4” (2017)
The source made the active and inactive calls. No cut-off for these calls is given here.

Tests used:
Escherichia coli [1] = experiment: Induction of Escherichia coli pUC19 DNA damage assessed as increase in open circular DNA forms after 1 hr by agarose gel electrophoresis
HeLa [2] = experiment: Induction of DNA damage in human HeLa cells assessed as increase in DNA lessions at 4 degreeC incubation for 120 mins by alkaline comet assay relative to control; format: functional, cell-based
HeLa [3] = experiment: Induction of oxidative stress in human HeLa cells assessed as reduction in GSH level after 1 hr by MBCL probe based flow cytometry relative to control; format: functional; parameters: scale not given: the % may be the effect or the level left
HeLa [4] = experiment: Geno-toxicity in human HeLa cells assessed as induction of DNA damage by measuring increase in double stranded DNA breaks at 5.6 to 69 uM after 1 hr by neutral comet assay; format: functional, cell-based
HeLa [5] = experiment: Effect on NOX4 mRNA expression in human HeLa cells after 4 hrs by RT-PCR method relative to control; format: functional
HeLa [6] = experiment: Effect on NCOA7 mRNA expression in human HeLa cells after 4 hrs by RT-PCR method relative to control; format: functional
Escherichia coli [7] = experiment: Induction of Escherichia coli pUC19 DNA damage assessed as increase in linear DNA forms after 1 hr by agarose gel electrophoresis
HeLa [8] = experiment: Effect on SOD1 mRNA expression in human HeLa cells after 4 hrs by RT-PCR method relative to control; format: functional
HeLa [9] = experiment: Geno-toxicity in human HeLa cells assessed as induction of DNA damage by measuring increase in single strand breaks after 1 hr by comet assay; format: functional, cell-based
HeLa [10] = experiment: Effect on SOD2 mRNA expression in human HeLa cells after 4 hrs by RT-PCR method relative to control; format: functional
HeLa [11] = experiment: Upregulation of GPX1 mRNA expression in human HeLa cells after 4 hrs by RT-PCR method; format: functional, cell-based
HeLa [12] = experiment: Induction of DNA damage in human HeLa cells assessed as increase in DNA lessions at 37 degreeC incubation for 120 mins by alkaline comet assay relative to control; format: functional, cell-based
HeLa [13] = experiment: Induction of ROS production in human HeLa cells after 1 hr by CM-H2DCFDA probe based fluorescence assay; format: functional, cell-based
HeLa [14] = experiment: Induction of DNA damage in human HeLa cells incubated for 1 hr followed by repair incubation for 120 mins by alkaline comet assay; format: functional, cell-based
HeLa [15] = experiment: Effect on NQO1 mRNA expression in human HeLa cells after 4 hrs by RT-PCR method relative to control; format: functional
HeLa [16] = experiment: Effect on HMOX mRNA expression in human HeLa cells after 4 hrs by RT-PCR method relative to control; format: functional
HeLa [17] = experiment: Effect on GPX4 mRNA expression in human HeLa cells after 4 hrs by RT-PCR method relative to control; format: functional
HeLa [18] = experiment: Induction of oxidative stress in human HeLa cells assessed as reduction in thioredoxin reductase at IC50 after 14 hrs by DTNB/bradford reagent based colorimetric method; format: functional; parameters: scale not given: the % may be the effect or the level left
Escherichia coli [19] = experiment: Induction of Escherichia coli pUC19 DNA damage assessed as decrease in supercoiled covalently closed circular DNA forms after 1 hr by agarose gel electrophoresis
HeLa [20] = experiment: Induction of DNA damage in human HeLa cells after 1 hr in presence of antioxidant vitamin E by alkaline comet assay relative to control; format: functional, cell-based
HeLa [21] = experiment: Induction of nitric oxide production in human HeLa cells after 1 hr by DAF2-DA probe based fluorescence assay; format: functional, cell-based
HeLa [22] = experiment: Geno-toxicity in human HeLa cells assessed as induction of DNA damage after 1 hr by alkaline comet assay; format: functional, cell-based
HeLa [23] = experiment: Effect on TXN mRNA expression in human HeLa cells after 4 hrs by RT-PCR method relative to control; format: functional
HeLa [24] = experiment: Effect on NOX5 mRNA expression in human HeLa cells after 4 hrs by RT-PCR method relative to control; format: functional
HeLa [25] = experiment: Upregulation of CAT mRNA expression in human HeLa cells after 4 hrs by RT-PCR method; format: functional, cell-based
HeLa [26] = experiment: Geno-toxicity in human HeLa cells assessed as induction of DNA damage by measuring increase in incomplete excision repair sites at pH 12.1 after 1 hr by comet assay; format: functional, cell-based
HeLa [27] = experiment: Induction of DNA damage in human HeLa cells after 1 hr in presence of antioxidant epicatechin by alkaline comet assay relative to control; format: functional, cell-based
HeLa [28] = experiment: Effect on GCLM mRNA expression in human HeLa cells after 4 hrs by RT-PCR method relative to control; format: functional
HeLa [29] = experiment: Geno-toxicity in human HeLa cells assessed as induction of DNA damage by measuring increase in double stranded DNA breaks at 17 to 137 uM after 1 hr by neutral comet assay; format: functional, cell-based
HeLa [30] = experiment: Geno-toxicity in human HeLa cells assessed as induction of DNA damage by measuring increase in double stranded DNA breaks at 69 to 550 uM after 1 hr by neutral comet assay; format: functional, cell-based

Row | Compound | Activity (Escherichia coli [1]) | Activity (HeLa [2]) | Activity (HeLa [3]) | fold change (FC) (HeLa [5]) | fold change (FC) (HeLa [6]) | Activity (Escherichia coli [7]) | fold change (FC) (HeLa [8]) | Activity (HeLa [9]) | fold change (FC) (HeLa [10]) | Activity (HeLa [11]) | Activity (HeLa [12]) | Activity (HeLa [13]) | Activity (HeLa [14]) | fold change (FC) (HeLa [15]) | fold change (FC) (HeLa [16]) | fold change (FC) (HeLa [17]) | Activity (HeLa [18]) [%] | Activity (Escherichia coli [19]) | Activity (HeLa [20]) | Activity (HeLa [21]) | further results
1 | CC(=O)OC[C@H]1O[C@@H](S[C@@H]2CC(=O)[C@@H]3OC[C@H]2O3)[C@H](OC(C)=O)[C@@H](OC(C)=O)[C@@H]1OC(C)=O | inactive | inactive | 20% | 0.58 | 0.43 | inactive | 1.18 | Dose-dependent effect | 1.56 | Active | Active | Active | inactive | 1.34 | 20.29 | 1.15 | 18.3 | inactive | inactive | inactive | Activity (HeLa [4]): inactive; Activity (HeLa [22]): Dose-dependent effect; fold change (FC) (HeLa [23]): 0.76; fold change (FC) (HeLa [24]): 0.53; Activity (HeLa [25]): Active; Activity (HeLa [26]): Dose-dependent effect; Activity (HeLa [27]): inactive; fold change (FC) (HeLa [28]): 2.21
2 | O=C(O)c1ccccc1S[C@@H]1CC(=O)[C@@H]2OC[C@H]1O2 | inactive | inactive | Active | 1.13 | 0.51 | inactive | 1.12 | Dose-dependent effect | 1.28 | Active | Active | Active | inactive | 1.61 | 3.42 | 0.56 | 7.5 | inactive | inactive | inactive | Activity (HeLa [29]): inactive; Activity (HeLa [22]): Dose-dependent effect; fold change (FC) (HeLa [23]): 0.93; fold change (FC) (HeLa [24]): 0.56; Activity (HeLa [25]): Active; Activity (HeLa [26]): Dose-dependent effect; Activity (HeLa [27]): inactive; fold change (FC) (HeLa [28]): 1.56
3 | O=C1C[C@@H](S[C@@H]2O[C@H](CO)[C@@H](O)[C@H](O)[C@H]2O)[C@H]2CO[C@@H]1O2 | inactive | inactive | Active | 0.68 | 0.35 | inactive | 1.16 | Dose-dependent effect | 1.25 | Active | Active | Active | inactive | 1.27 | 7.29 | 0.56 | 3.86 | inactive | inactive | inactive | Activity (HeLa [22]): Dose-dependent effect; fold change (FC) (HeLa [23]): 0.94; fold change (FC) (HeLa [24]): 0.34; Activity (HeLa [25]): Active; Activity (HeLa [26]): Dose-dependent effect; Activity (HeLa [30]): inactive; Activity (HeLa [27]): inactive; fold change (FC) (HeLa [28]): 1.95
4 | CC(=O)OC[C@H]1O[C@@H](S[C@@H]2CC(=O)[C@@H]3OC[C@H]2O3)[C@H](OC(C)=O)[C@@H](OC(C)=O)[C@H]1OC(C)=O | inactive | inactive | 60% | 0.74 | 0.37 | inactive | 1.07 | Dose-dependent effect | 1.26 | Active | Active | Active | inactive | 1.36 | 10.53 | 0.75 | 9.2 | inactive | inactive | inactive | Activity (HeLa [22]): Dose-dependent effect; fold change (FC) (HeLa [23]): 1.07; fold change (FC) (HeLa [24]): 0.68; Activity (HeLa [25]): Active; Activity (HeLa [26]): Dose-dependent effect; Activity (HeLa [30]): inactive; Activity (HeLa [27]): inactive; fold change (FC) (HeLa [28]): 1.77
